Measurements from patent US7595404B2, “Thiazolyl-substituted carbocyclic 1,3-diones as pesticidal agents” (Bayer CropScience AG, priority 2001, dated 2009).

Columns and labels:
[1] = system: greenhouse red spider mite (Tetranychus urticae); assay: Tetranychus test (OP-resistant/dip treatment); format: in vivo; details: 100 ppm, dipped bean plants
Description: Tetranychus test (OP-Resistant/Dip Treatment)
• Solvent: 30 parts by weight of dimethylformamide • Emulsifier: 1 part by weight of alkylaryl polyglycol ether
To produce a suitable preparation of active compound, 1 part by weight of active compound is mixed with the stated amounts of solvent and emulsifier, and the concentrate is diluted with emulsifier-containing water to the desired concentration.
Bean plants (Phaseolus vulgaris) which are heavily infested by all stages of the greenhouse red spider mite (Tetranychus urticae) are dipped into a preparation of active compound of the desired concentration.
After the desired period of time, the effect in % is determined. 100% means that all spider mites have been killed; 0% means that none of the spider mites have been killed.

Setaria [2] = assay: Post-emergence test, Setaria; format: in vivo; details: post-emergence/greenhouse; 250 g a.i./ha; after three weeks
Description: (§1) • Solvent: 5 parts by weight of acetone • Emulsifier: 1 part by weight of alkylaryl polyglycol ether
(§2) To produce a suitable preparation of active compound, 1 part by weight of active compound is mixed with the stated amount of solvent, the stated amount of emulsifier is added and the concentrate is diluted with water to the desired concentration.
(§3) Test plants of a height of 5-15 cm are sprayed with the preparation of active compound such that the particular amounts of active compound desired are applied per unit area. The concentration of the spray liquor is chosen such that the particular amounts of active compound desired are applied in 1000 l of water/ha.
(§4) After three weeks, the degree of damage to the plants is rated in % damage in comparison to the development of the untreated control.
(§5) The figures denote: • 0% =no effect (like untreated control) • 100% =total destruction

[3] = system: caterpillars of the armyworm (Spodoptera frugiperda); assay: Spodoptera frugiperda test; format: in vivo; details: 500 ppm, dipped cabbage leaves
Description: (§6) Spodoptera Frugiperda Test • Solvent: 7 parts by weight of dimethylformamide • Emulsifier: 2 parts by weight of alkylaryl polyglycol ether To produce a suitable preparation of active compound, 1 part by weight of active compound is mixed with the stated amounts of solvent and emulsifier, and the concentrate is diluted with emulsifier-containing water to the desired concentration. Cabbage leaves (Brassica oleracea) are treated by being dipped into the preparation of active compound of the desired concentration and are populated with caterpillars of the armyworm (Spodoptera frugiperda) while the leaves are still moist. After the desired period of time, the kill in % is determined. 100% means that all caterpillar larvae have been killed; 0% means that none of the caterpillar have been killed.

[4] = system: larvae of the mustard beetle (Phaedon cochleariae); assay: Phaedon larvae test; format: in vivo; details: 500 ppm, dipped cabbage leaves
Description: as §6, with “Phaedon Larvae Test” for “Spodoptera Frugiperda Test”, “with larvae” for “with caterpillars”, “the mustard beetle (Phaedon cochleariae)” for “the armyworm (Spodoptera frugiperda)”, “all beetle” for “all caterpillar”, “the beetle larvae” for “the caterpillar”

Galium = assay: Post-emergence test, Galium; format: in vivo; details: post-emergence/greenhouse; 250 g a.i./ha; after three weeks
Description: as §1, §2, §3, §4, §5

Avena fatua [5] = assay: Post-emergence test, Avena fatua; format: in vivo; details: post-emergence/greenhouse; 250 g a.i./ha; after three weeks
Description: as §1, §2, §3, §4, §5

Alopecurus [6] = assay: Post-emergence test, Alopecurus; format: in vivo; details: post-emergence/greenhouse; 250 g a.i./ha; after three weeks
Description: as §1, §2, §3, §4, §5

Sugar-beet = assay: Post-emergence test, Sugar beet; format: in vivo; details: post-emergence/greenhouse; 250 g a.i./ha; after three weeks; crop
Description: as §1, §2, §3, §4, §5

Abutilon = assay: Pre-emergence test, Abutilon; format: in vivo; details: pre-emergence/greenhouse; 125 g a.i./ha; after three weeks
Description: as §1, §2
(§7) Seeds of the test plants are sown in normal soil. After about 24 hours, the soil is sprayed with the preparation of active compound such that the particular amounts of active compound desired are applied per unit area. The concentration of the spray liquor is chosen such that the particular amounts of active compound desired are applied in 1000 l of water/ha.
as §4, §5

Bromus = assay: Pre-emergence test, Bromus; format: in vivo; details: pre-emergence/greenhouse; 125 g a.i./ha; after three weeks
Description: as §1, §2, §7, §4, §5

Setaria [7] = assay: Pre-emergence test, Setaria; format: in vivo; details: pre-emergence/greenhouse; 125 g a.i./ha; after three weeks
Description: as §1, §2, §7, §4, §5

Echinochloa = assay: Post-emergence test, Echinochloa; format: in vivo; details: post-emergence/greenhouse; 250 g a.i./ha; after three weeks
Description: as §1, §2, §3, §4, §5

Soya bean = assay: Pre-emergence test, Soya bean; format: in vivo; details: pre-emergence/greenhouse; 125 g a.i./ha; after three weeks; crop
Description: as §1, §2, §7, §4, §5

Lolium = assay: Pre-emergence test, Lolium; format: in vivo; details: pre-emergence/greenhouse; 125 g a.i./ha; after three weeks
Description: as §1, §2, §7, §4, §5

Septoria tritici = assay: In vitro test for the ED50 determination in microorganisms, Septoria tritici; format: cell-based; details: 50% inhibition of fungal growth, tested at 0.1, 1, 10 and 100 ppm, 22° C., 3-5 days, photometric 620 nm
Pyricularia oryzae = format: cell-based; details: 50% inhibition of fungal growth, tested at 0.1, 1, 10 and 100 ppm, 22° C., 3-5 days, photometric 620 nm
Ustilago avenae = assay: In vitro test for the ED50 determination in microorganisms, Ustilago avenae; format: cell-based; details: 50% inhibition of fungal growth, tested at 0.1, 1, 10 and 100 ppm, 22° C., 3-5 days, photometric 620 nm
Meloidogyne incognita = assay: Meloidogyne test; format: in vivo; details: 20 ppm active compound, nematicidal action by gall formation on lettuce roots
Description: Meloidogyne Test • Solvent: 30 parts by weight of dimethylformamide • Emulsifier: 1 part by weight of alkylaryl polyglycol ether To produce a suitable preparation of active compound, 1 part by weight of active compound is mixed with the stated amounts of solvent and emulsifier, and the concentrate is diluted with water to the desired concentration. Containers are filled with sand, solution of active compound, Meloidogyne incognita egg/larvae suspension and lettuce seeds. The lettuce seeds germinate the plants develop. On the roots, galls are formed. After the desired period of time, the nematicidal action is determined in % by the gall formation. 100% means that no galls have been found; 0% means that the number of galls on the treated plants corresponds to that of the untreated control.

Matricaria = assay: Pre-emergence test, Matricaria; format: in vivo; details: pre-emergence/greenhouse; 125 g a.i./ha; after three weeks
Description: as §1, §2, §7, §4, §5

Sinapis = assay: Post-emergence test, Sinapis; format: in vivo; details: post-emergence/greenhouse; 250 g a.i./ha; after three weeks
Description: as §1, §2, §3, §4, §5

Stellaria = assay: Pre-emergence test, Stellaria; format: in vivo; details: pre-emergence/greenhouse; 125 g a.i./ha; after three weeks
Description: as §1, §2, §7, §4, §5

Avena fatua [8] = assay: Pre-emergence test, Avena fatua; format: in vivo; details: pre-emergence/greenhouse; 125 g a.i./ha; after three weeks
Description: as §1, §2, §7, §4, §5

Polygonum = assay: Pre-emergence test, Polygonum; format: in vivo; details: pre-emergence/greenhouse; 125 g a.i./ha; after three weeks
Description: as §1, §2, §7, §4, §5

Alopecurus [9] = assay: Pre-emergence test, Alopecurus; format: in vivo; details: pre-emergence/greenhouse; 125 g a.i./ha; after three weeks
Description: as §1, §2, §7, §4, §5

Digitaria = assay: Pre-emergence test, Digitaria; format: in vivo; details: pre-emergence/greenhouse; 125 g a.i./ha; after three weeks
Description: as §1, §2, §7, §4, §5

Sugar beet = assay: Pre-emergence test, Sugar beet; format: in vivo; details: pre-emergence/greenhouse; 125 g a.i./ha; after three weeks; crop
Description: as §1, §2, §7, §4, §5

Wheat = assay: Pre-emergence test, Wheat; format: in vivo; details: pre-emergence/greenhouse; 125 g a.i./ha; after three weeks; crop
Description: as §1, §2, §7, §4, §5

Oilseed rape = assay: Pre-emergence test, Oilseed rape; format: in vivo; details: pre-emergence/greenhouse; 125 g a.i./ha; after three weeks; crop
Description: as §1, §2, §7, §4, §5

[10] = system: green peach aphid (Myzus persicae); assay: Myzus test (systemic action); format: in vivo; details: 20 ppm, watering of infested Savoy cabbage (systemic)
Description: Myzus Test (Systemic Action) • Solvent: 7 parts by weight of dimethylformamide • Emulsifier: 2 parts by weight of alkylaryl polyglycol ether To produce a suitable preparation of active compound, 1 part by weight of active compound is mixed with the stated amounts of solvent and emulsifier, and the concentrate is diluted with emulsifier-containing water to the desired concentration. Savoy cabbage (Brassica oleracea) which is heavily infested by the green peach aphid (Myzus persicae) is watered with in each case 10 ml of preparation of active compound of the desired concentration such that the preparation of active compound penetrates into the soil without wetting the seedling. The active compound is taken up by the roots and transferred into the seedling. After the desired period of time, the kill in % is determined. 100% means that all aphids have been killed; 0% means that none of the aphids have been killed.

Structure (SMILES) | Kill rate in % after 7 d [1] [%] | % damage, Setaria (Setaria [2]) [%] | Kill rate in % after 7 d [3] [%] | % damage, Avena fatua (Avena fatua [5]) [%] | % damage, Alopecurus (Alopecurus [6]) [%] | % damage, Setaria (Setaria [7]) [%] | % damage, Soya bean (Soya bean) [%] | % damage, Lolium (Lolium) [%] | % damage, Sinapis (Sinapis) [%] | % damage, Stellaria (Stellaria) [%] | % damage, Alopecurus (Alopecurus [9]) [%] | other results
CCOC(=O)OC1=C(c2nc(-c3ccc(Cl)cc3)sc2C)C(=O)CC(C)(C)C1 [Example I-2-c-1] | 100 | 100 | 100 | 100 | 90 | – | – | – | – | – | – | Kill rate in % after 7 d [4]: 100%; % damage, Galium (Galium): 80%
Cc1sc(-c2ccc(Cl)cc2)nc1C1=C(O)CC(C)(C)CC1=O [Example I-2-a-1] | 98 | 100 | 100 | 95 | 90 | 100 | 0 | 100 | – | – | – | % damage, Sugar-beet (Sugar-beet): 0%; % damage, Abutilon (Abutilon): 70%; % damage, Bromus (Bromus): 95%; % damage, Echinochloa (Echinochloa): 100%
Cc1sc(-c2ccc(Cl)cc2)nc1C1=C(O)C(C)(C)CCC1=O [Example I-2-a-3] | – | – | – | – | – | – | – | – | – | – | – | ED50 value (Septoria tritici): <0.1 ppm; ED50 value (Pyricularia oryzae): <0.1 ppm; ED50 value (Ustilago avenae): 0.1 ppm
Cc1sc(-c2ccc(Cl)cc2)nc1C1=C(O)CCCC1=O [Example I-2-a-2] | 99 | – | – | – | – | – | – | – | – | – | – | ED50 value (Septoria tritici): <0.1 ppm; ED50 value (Pyricularia oryzae): 1.96 ppm; ED50 value (Ustilago avenae): <0.1 ppm
Cc1sc(-c2ccc(Cl)cc2)nc1C1=C(O)C(C)(C)CC1=O [Example I-1-a-1] | 100 | 100 | – | 100 | 100 | 100 | 0 | 100 | 70 | 100 | – | Kill rate in % after 14 d (Meloidogyne incognita): 95%; % damage, Matricaria (Matricaria): 100%
CCc1sc(-c2ccc(Cl)cc2)nc1C1=C(O)C2(CCCCC2)CC1=O [Example I-1-a-3] | – | 100 | – | 100 | 90 | – | – | – | 80 | – | 95 | % damage, Avena fatua (Avena fatua [8]): 100%; % damage, Polygonum (Polygonum): 100%; % damage, Digitaria (Digitaria): 100%; % damage, Sugar beet (Sugar beet): 0%
CCOC(=O)OC1=C(c2nc(-c3ccc(Cl)cc3)sc2CC)C(=O)CC12CCCCC2 [Example I-1-c-3] | 98 | 100 | – | 100 | 100 | 100 | 0 | 100 | 80 | 70 | 95 | Kill rate in % after 14 d (Meloidogyne incognita): 100%; % damage, Wheat (Wheat): 10%
CCOC(=O)OC1=C(c2nc(-c3ccc(Cl)cc3)sc2C)C(=O)CC12CCCCC2 [Example I-1-c-2] | – | – | – | – | – | – | – | 100 | – | 100 | 95 | % damage, Digitaria (Digitaria): 100%; % damage, Oilseed rape (Oilseed rape): 0%; Kill rate in % after 10 d [10]: 95%
CCOC(=O)OC1=C(c2nc(-c3ccc(Cl)cc3)sc2C)C(=O)CC1(C)C [Example I-1-c-1] | 95 | 100 | 100 | 90 | – | – | – | – | 70 | – | – | % damage, Sugar-beet (Sugar-beet): 0%; Kill rate in % after 7 d [4]: 100%; % damage, Echinochloa (Echinochloa): 100%
